Values belong to the compound of their own block, whether it stands above or below them.
Assays:
[1] = Dissolution test according to USP 26 at pH 6.8; format: physicochemical
Procedure: A dissolution test is carried out on the microcapsules thus obtained comparing them with anhydrous theophylline in crystalline form.
The dissolution test was performed according to USP 26.
A dissolution test is carried out on the microcapsules obtained in Examples 5 and 6 according to the method previously described for Example 4
Dissolution test was performed according to USP 26
A dissolution test is carried out on the microcapsules thus obtained compared to fluoxetine raw material.
Dissolution test was performed according to USP 26.

[2] = Dissolution test according to USP 26 at pH 1.2; format: physicochemical; details: caffeine
Procedure: The microcapsutes obtained, when analysed with an electronic microscope (FIG. 3), show a distribution of the particles of the active principle within the polymeric membrane in the form of solid particles that are prevalently disposed at the interface between the polymer and the core. […] Dissolution test was performed according to USP 26.

Dissolution % at pH 6.8, 5 min ([1]; fluoxetine, USP 26): 55%
Dissolution % at pH 6.8, 10 min ([1]; fluoxetine, USP 26): 75%
Dissolution % at pH 6.8, 20 min ([1]; 20 min, fluoxetine, USP 26): 100%
Compound: CNCCC(Oc1ccc(C(F)(F)F)cc1)c1ccccc1 (stereo not shown) [Fluoxetine]

Dissolution % at pH 6.8, 5 min ([1]; theophylline, USP 26): 65%
Dissolution % at pH 6.8, 10 min ([1]; theophylline, Table of Example 7, lower head): 100%
Dissolution % at pH 6.8, 15 min ([1]; 15 min, theophylline, USP 26): 100%
Compound: Cn1c(=O)c2[nH]cnc2n(C)c1=O [Anhydrous Theophylline]

Compound: Cn1c(=O)c2c(ncn2C)n(C)c1=O [Caffeine]
Dissolution % at pH 1.2, 60 min [2]: 100%

— patent US20130156934A1, “MICROCAPSULES BY COACERVATION CONTAINING A PHARMACEUTICAL INCORPORATED IN THE COATING POLYMER” (APTALIS PHARMA LIMITED, priority 2003, published 2013)
